The test system of this experiment is MCH receptors. Kind of experiment: MCH receptor activity class (method not given).
The mark [1] stands for this setting: activity class per percent of control at 10^-7 M or IC50.
The mark [2] stands for this setting: class by percent of control at 10^-7 M or IC50.
Setting [3] is: activity class 1-3: percent of control at 10^-7 M or IC50.
[4] abbreviates: MCH receptor, class by percent of control at 10^-7 M or IC50.

For the compound `CC1=C(CC(=O)N[C@H]2CC[C@@H](Nc3nc4c(c(N(C)C)n3)CCCC4)CC2)c2cc(F)ccc2/C1=C/c1ccc([S+](C)[O-])cc1` (relative stereo) [compound 1019], the class under setting [1] was 1 (Class 1: The value of percent of control at 10^−7 M was less than 40% or the value of IC50 was less than 50 nM.).

As for `CC(C(=O)N[C@H]1CC[C@@H](Nc2nc3c(c(N(C)C)n2)CCCC3)CC1)c1ccc(C(=O)c2cccs2)cc1` (relative stereo) [compound 1020], the class under setting [1] was 2 (Class 2: The value of percent of control at 10^−7 M was from 40% to 60% or the value of IC′50 was from 50 nM to 200 nM.).

On to `COC(C(=O)N[C@H]1CC[C@@H](Nc2nc3c(c(N(C)C)n2)CCCC3)CC1)c1ccccc1` (relative stereo) [compound 1052], for which the class under setting [1] is 2 (Class 2: The value of percent of control at 10^−7 M was from 40% to 60% or the value of IC′50 was from 50 nM to 200 nM.).

As to `CN(C)c1nc(N[C@H]2CC[C@@H](NC(=O)C3CCc4ccccc4C3)CC2)nc2c1CCCC2` (relative stereo) [compound 1053], the class under setting [1] is 3 (Class 3 The value of percent of control at 10^−7 M was more than 60% or the value of IC50 was more than 200 nM.).

`CN(C)c1nc(N[C@H]2CC[C@@H](CNC(=O)C(Cc3ccccc3)c3ccccc3)CC2)nc2c1CCCC2` (relative stereo) [compound 1066]: under setting [1], the class is listed as 3 (Class 3 The value of percent of control at 10^−7 M was more than 60% or the value of IC50 was more than 200 nM.).

Turning to `CN(C)c1nc(N[C@H]2CC[C@@H](CNC(=O)C3CC(=O)c4ccccc43)CC2)nc2c1CCCC2` (relative stereo) [compound 1071], the class under setting [1] is given as 3 (Class 3 The value of percent of control at 10^−7 M was more than 60% or the value of IC50 was more than 200 nM.).

As to `CCOc1ccc(C(=O)CC(C(=O)NC[C@H]2CC[C@@H](Nc3nc4c(c(N(C)C)n3)CCCC4)CC2)C2C(=O)N(c3ccccc3)N=C2C)cc1` (relative stereo) [compound 1080], under setting [1], the class was 3 (Class 3 The value of percent of control at 10^−7 M was more than 60% or the value of IC50 was more than 200 nM.).

For the compound `CC(CCN[C@H]1CC[C@@H](Nc2cc(N(C)C)c3ccccc3n2)CC1)c1ccccc1` (relative stereo) [compound 1106], under setting [1], the class is 3 (Class 3 The value of percent of control at 10^−7 M was more than 60% or the value of IC50 was more than 200 nM.).

For the compound `CC(CCN[C@H]1CC[C@@H](Nc2nccc(N(C)C)n2)CC1)c1ccccc1` (relative stereo) [compound 1226], under setting [2], the class is reported as 3 (Class 3 The value of percent of control at 10^−7 M was more than 60% or the value of IC50 was more than 200 nM.).

For the compound `CC(CN[C@H]1CC[C@@H](Nc2nccc(N(C)C)n2)CC1)c1ccccc1` (relative stereo) [compound 1231], under setting [2], the class is 3 (Class 3 The value of percent of control at 10^−7 M was more than 60% or the value of IC50 was more than 200 nM.).

Consider `CC(CN[C@H]1CC[C@@H](Nc2nc3c(c(N(C)C)n2)CCCC3)CC1)c1ccccc1` (relative stereo) [compound 1352], for which the class under setting [2] was 3 (Class 3 The value of percent of control at 10^−7 M was more than 60% or the value of IC50 was more than 200 nM.).

With `COC(CN[C@H]1CC[C@@H](Nc2cc(N(C)C)c3ccccc3n2)CC1)c1ccccc1` (relative stereo) [compound 1450], the class under setting [2] is given as 3 (Class 3 The value of percent of control at 10^−7 M was more than 60% or the value of IC50 was more than 200 nM.).

For `COC(CN[C@H]1CC[C@@H](Nc2nccc(N(C)C)n2)CC1)c1ccccc1` (relative stereo) [compound 1516], under setting [3], the class is on record as 3 (Class 3 The value of percent of control at 10^−7 M was more than 60% or the value of IC50 was more than 200 nM.).

For `CCOC(=O)[C@H](CC(C)C)NC(=O)N[C@H]1CC[C@@H](Nc2nc3c(c(N(C)C)n2)CCCC3)CC1` (relative stereo) [compound 1663], the class under setting [3] was 3 (Class 3 The value of percent of control at 10^−7 M was more than 60% or the value of IC50 was more than 200 nM.).

Consider `COC(=O)[C@H](CCSC)NC(=O)N[C@H]1CC[C@@H](Nc2nc3c(c(N(C)C)n2)CCCC3)CC1` (relative stereo) [compound 1699], for which the class under setting [3] is 3 (Class 3 The value of percent of control at 10^−7 M was more than 60% or the value of IC50 was more than 200 nM.).

For `CC(NC(=O)N[C@H]1CC[C@@H](Nc2nc3c(c(N(C)C)n2)CCCC3)CC1)c1cccc2ccccc12` (relative stereo) [compound 1704], under setting [3], the class is 1 (Class 1: The value of percent of control at 10^−7 M was less than 40% or the value of IC50 was less than 50 nM.).

Take `COC(=O)[C@H](Cc1ccccc1)NC(=O)N[C@H]1CC[C@@H](Nc2nc3c(c(N(C)C)n2)CCCC3)CC1` (relative stereo) [compound 1705]: the class under setting [3] is listed as 3 (Class 3 The value of percent of control at 10^−7 M was more than 60% or the value of IC50 was more than 200 nM.).

On to `CC(NC(=O)N[C@H]1CC[C@@H](Nc2nc3c(c(N(C)C)n2)CCCC3)CC1)c1ccccc1` (relative stereo) [compound 1706], for which the class under setting [3] was 3 (Class 3 The value of percent of control at 10^−7 M was more than 60% or the value of IC50 was more than 200 nM.).

As for `CC(NC(=O)N[C@H]1CC[C@@H](Nc2nc3c(c(N(C)C)n2)CCCC3)CC1)c1ccc(Br)cc1` (relative stereo) [compound 1728, N-[1-(4-bromophenyl)ethyl]-N′-(cis-4-{[4-(dimethylamino)-5,6,7,8-tetrahydroquinazolin-2-yl]amino}cyclohexyl)urea], the class under setting [2] is on record as 2 (Class 2: The value of percent of control at 10^−7 M was from 40% to 60% or the value of IC′50 was from 50 nM to 200 nM.).

Regarding `CCOC(=O)[C@H](Cc1ccccc1)NC(=O)N[C@H]1CC[C@@H](Nc2nc3c(c(N(C)C)n2)CCCC3)CC1` (relative stereo) [compound 1730], under setting [2], the class is recorded as 3 (Class 3 The value of percent of control at 10^−7 M was more than 60% or the value of IC50 was more than 200 nM.).

Take `CN(C)c1nc(N[C@H]2CC[C@@H](NC(=O)NC34CC5CC(CC(C5)C3)C4)CC2)nc2c1CCCC2` (relative stereo) [compound 1807]: the class under setting [2] is 3 (Class 3 The value of percent of control at 10^−7 M was more than 60% or the value of IC50 was more than 200 nM.).

Take `CN(C)c1nc(N[C@H]2CC[C@@H](NC(=S)NCC3CCCO3)CC2)nc2c1CCCC2` (relative stereo) [compound 1958]: the class under setting [4] was 3 (Class 3 The value of percent of control at 10^−7 M was more than 60% or the value of IC50 was more than 200 nM.).

On to `CN(C)c1nc(N[C@H]2CC[C@@H](NC(=S)NC34CC5CC(CC(C5)C3)C4)CC2)nc2c1CCCC2` (relative stereo) [compound 1962], for which, under setting [4], the class is listed as 3 (Class 3 The value of percent of control at 10^−7 M was more than 60% or the value of IC50 was more than 200 nM.).

For `CC(NC(=S)N[C@H]1CC[C@@H](Nc2nc3c(c(N(C)C)n2)CCCC3)CC1)c1ccc(F)cc1` (relative stereo) [compound 2014], under setting [4], the class was 3 (Class 3 The value of percent of control at 10^−7 M was more than 60% or the value of IC50 was more than 200 nM.).

For the compound `CC(NC(=S)N[C@H]1CC[C@@H](Nc2nc3c(c(N(C)C)n2)CCCC3)CC1)c1ccccc1` (relative stereo) [compound 2024], the class under setting [4] is on record as 3 (Class 3 The value of percent of control at 10^−7 M was more than 60% or the value of IC50 was more than 200 nM.).

Regarding `CN(C)c1nc(N[C@H]2CC[C@@H](NC(=S)NC3CC4C=CC3C4)CC2)nc2c1CCCC2` (relative stereo) [compound 2067], the class under setting [4] was 3 (Class 3 The value of percent of control at 10^−7 M was more than 60% or the value of IC50 was more than 200 nM.).

Regarding `CCOC(=O)[C@H](CC(C)C)NC(=O)N[C@H]1CC[C@@H](Nc2cc(N(C)C)c3ccccc3n2)CC1` (relative stereo) [compound 2093], the class under setting [2] is on record as 3 (Class 3 The value of percent of control at 10^−7 M was more than 60% or the value of IC50 was more than 200 nM.).

Take `COC(=O)[C@H](CCSC)NC(=O)N[C@H]1CC[C@@H](Nc2cc(N(C)C)c3ccccc3n2)CC1` (relative stereo) [compound 2129]: the class under setting [2] is on record as 3 (Class 3 The value of percent of control at 10^−7 M was more than 60% or the value of IC50 was more than 200 nM.).

As for `CC(NC(=O)N[C@H]1CC[C@@H](Nc2cc(N(C)C)c3ccccc3n2)CC1)c1cccc2ccccc12` (relative stereo) [compound 2134], the class under setting [2] is on record as 1 (Class 1: The value of percent of control at 10^−7 M was less than 40% or the value of IC50 was less than 50 nM.).

On to `COC(=O)[C@H](Cc1ccccc1)NC(=O)N[C@H]1CC[C@@H](Nc2cc(N(C)C)c3ccccc3n2)CC1` (relative stereo) [compound 2135], for which, under setting [2], the class is given as 2 (Class 2: The value of percent of control at 10^−7 M was from 40% to 60% or the value of IC′50 was from 50 nM to 200 nM.).

Take `CC(NC(=O)N[C@H]1CC[C@@H](Nc2cc(N(C)C)c3ccccc3n2)CC1)c1ccccc1` (relative stereo) [compound 2136]: the class under setting [2] was 3 (Class 3 The value of percent of control at 10^−7 M was more than 60% or the value of IC50 was more than 200 nM.).

Take `CC(NC(=O)N[C@H]1CC[C@@H](Nc2cc(N(C)C)c3ccccc3n2)CC1)c1ccc(Br)cc1` (relative stereo) [compound 2158]: under setting [2], the class was 3 (Class 3 The value of percent of control at 10^−7 M was more than 60% or the value of IC50 was more than 200 nM.).

As for `CCOC(=O)[C@H](Cc1ccccc1)NC(=O)N[C@H]1CC[C@@H](Nc2cc(N(C)C)c3ccccc3n2)CC1` (relative stereo) [compound 2160], the class under setting [2] is listed as 3 (Class 3 The value of percent of control at 10^−7 M was more than 60% or the value of IC50 was more than 200 nM.).

Take `CCOC(=O)[C@H](CC(C)C)NC(=O)N[C@H]1CC[C@@H](Nc2nccc(N(C)C)n2)CC1` (relative stereo) [compound 2183]: under setting [2], the class is given as 3 (Class 3 The value of percent of control at 10^−7 M was more than 60% or the value of IC50 was more than 200 nM.).

For `COC(=O)[C@H](CCSC)NC(=O)N[C@H]1CC[C@@H](Nc2nccc(N(C)C)n2)CC1` (relative stereo) [compound 2219], the class under setting [2] is recorded as 3 (Class 3 The value of percent of control at 10^−7 M was more than 60% or the value of IC50 was more than 200 nM.).

The values are drawn from patent publication US20050197350A1, “Novel quinoline, tetrahydroquinazoline, and pyrimidine derivatives and methods of treatment related to the use thereof” (TAISHO PHARMACEUTICAL CO., LTD., priority 2003, published 2005).
